Converted amounts (≈) assume the structure as drawn. Read-outs that look alike come from different tables or passages of the source.
Key:
ATF4 = assay: HEK-ATF4 High Content Imaging assay (prevention of Tunicamycin induced ISR; ATF4 signal ratio between nucleus and cytoplasm); format: cell-based; details: Homo sapiens; Wild-type HEK293 cells, Tunicamycin induced ISR, 6 h; read-out: IIEK-ATF4 Activity
Procedure: HEK-ATF4 High Content Imaging Assay
Example compounds were tested in the HEK-ATF4 High Content Imaging assay to assess their pharmacological potency to prevent Tunicamycin induced ISR. Wild-type HEK293 cells were plated in 384-well imaging assay plates at a density of 12,000 cells per well in growth medium (containing DMEM/F12, 10% FBS, 2 mM L-Glutamine, 100 U/mL Penicillin-100 μg/mL Streptomycin) and incubated at 37° C., 5% CO2. 24 h later, the medium was changed to 50 μL assay medium per well (DMEM/F12, 0.3% FBS, 2 mM L-Glutamine, 100 U/mL Penicillin-100 μg/mL Streptomycin). Example compounds were serially diluted in DMSO, spotted into intermediate plates and prediluted with assay medium containing 3.3 μM Tunicamycin to give an 11-fold excess of final assay concentration. In addition to the example compound testing area, the plates also contained multiples of control wells for assay normalization purposes, wells containing Tunicamycin but no example compounds (High control), as well as wells containing neither example compound nor Tunicamycin (Low control). The assay was started by transferring 5 μL from the intermediate plate into the assay plates, followed by incubation for 6 h at 37° C., 5% CO2. Subsequently, cells were fixed (4% PFA in PBS, 20 min at r.t.) and submitted to indirect ATF4 immunofluorescence staining (primary antibody rabbit anti ATF4, clone D4B8, Cell Signaling Technologies; secondary antibody Alexa Fluor 488 goat anti-rabbit IgG (H+L), Thermofisher Scientific). Nuclei were stained using Hoechst dye (Thermofisher Scientific), and plates were imaged on an Opera Phenix High Content imaging platform equipped with 405 nm and 488 nm excitation. Finally, images were analyzed using script based algorithms. The main readout HEK-ATF4 monitored the ATF4 signal ratio between nucleus and cytoplasm. Tunicamycin induced an increase in the overall ATF4 ratio signal, which was prevented by ISR modulating example compounds. In addition, HEK-CellCount readout was derived from counting the number of stained nuclei corresponding to healthy cells. This readout served as an internal toxicity control.

[1] = Thermodynamic (Equilibrium) solubility in selected buffer; format: physicochemical; details: Table 25; for solubility: aqueous buffer, thermodynamic from solid
Procedure: Protocol—Thermodynamic (Equilibrium) Solubility in Selected Buffer
Example compounds were tested in the Thermodynamic (Equilibrium) solubility in selected buffer assay. The test compound, in powder form, was weighted into a 4 mL glass vial and a calculated volume of selected medium was added to reach the target concentration of the solubility test (1 mg/mL). The solution was then stirred overnight at r.t. protected from the light. The solution was filtered through a 0.45 μm PTFE membrane at ambient temperature. An aliquot of the resulting filtrate was quantified using UPLC-UV method described below against a reference solution of the test compound, 0.8 mg/mL in DMSO. Media compositions: Phosphate buffer 50 mM (pH=2.0) […] of NaH2PO4, H2O in 200 mL of ultrapurified water adjusted at pH 2 with phosphoric acid 85%; Acetate buffer 50 mM (pH=5.5) 820 mg of anhydrous sodium acetate in 200 mL of ultrapurified water adjusted at pH 5.5 with acetic acid 99.8%; Phosphate buffer 50 mM (pH=7.4) 40.5 mL of Na2HPO4 0.1 M solution+9.5 mL of NaH2PO4 0.1 M solution. Analytical conditions: UPLC-UV-MS analyses were performed with a Waters Acquity UPLC HClass-PDA-QDa system using a reverse phase Acquity BEH C18 column (2.1 mm×50 mm, 1.7 μm; temperature: 40° C.) and a gradient of 10-95% B (A=0.1% formic acid in H2O; B=0.05% formic acid in ACN) over 1.8 min then 100% B for 0.8 min, with an injection volume of 0.4 μL at flow rate of 0.65 mL/min. UV chromatograms were recorded at 220 nm, 254 nm and 290 nm using a photo diode array detector. Mass spectra were recorded in the 150 to 900 M/Z range at a sampling rate of 10 scans per sec using a QDa detector. Data were integrated using Empower®3 software. Data Analysis: Equilibrium solubility of the test compound in the selected medium was calculated through the ratio of the surface area of the UV chromatographic peak of the compound in the filtrate to the surface of the UV chromatographic peak of the compound in the reference solution.

[2] = acetate buffer 50 mM, pH 5.5, read-out: Solubility (μg/mL) pH 5.5
[3] = phosphate buffer 50 mM, pH 7.4, read-out: Solubility (μg/mL) pH 7.4

| IC50 (ATF4) [µM] | SMILES | further results |
| --- | --- | --- |
| 0.001 to 0.5 | O=C(COc1ccc(C(F)(F)F)c(F)c1)N[C@H]1CC[C@H](c2nnc(OCCC(F)(F)F)o2)NC1 [Example 23, 2-[3-fluoro-4-(trifluoromethyl)phenoxy]-N-[(3S,6R)-6-[5-(3,3,3-trifluoropropoxy)-1,3,4-oxadiazol-2-yl]piperidin-3-yl]acetamide] |  |
| 0.5 to 2 | O=C(COc1ccc(C(F)(F)F)cc1)N[C@H]1CC[C@H](c2nnc(OCCC(F)(F)F)o2)NC1 [Example 19, 2-[4-(trifluoromethyl)phenoxy]-N-[(3S,6R)-6-[5-(3,3,3-trifluoropropoxy)-1,3,4-oxadiazol-2-yl]piperidin-3-yl]acetamide] |  |
| 0.001 to 0.5 | O=C(COc1ccc(Br)cc1)N[C@H]1CC[C@H](c2nnc(OCCC(F)(F)F)o2)NC1 [Example 27, 2-(4-bromophenoxy)-N-[(3S,6R)-6-[5-(3,3,3-trifluoropropoxy)-1,3,4-oxadiazol-2-yl]piperidin-3-yl]acetamide] |  |
| 0.5 to 2 | CC(COc1nnc([C@H]2CC[C@H](NC(=O)COc3ccc(Cl)c(F)c3)CN2)o1)C(F)(F)F (stereo partly drawn) [Example 63, 2-(4-chloro-3-fluorophenoxy)-N-[(3S,6R)-6-[5-(3,3,3-trifluoro-2-methylpropoxy)-1,3,4-oxadiazol-2-yl]piperidin-3-yl]acetamide] |  |
|  | O=C(CO[C@H]1C[C@@H](OC(F)(F)F)C1)N[C@@H]1CC[C@@H](c2nnc(-c3ccc(Cl)cc3)o2)NC1 [Example 5] | solubility [1, 2]: 215 µg/mL (≈ 453 µM); Solubility (μg/mL) pH 2.0 ([1]; pH 2.0): quant.^#; solubility [1, 3]: 278 µg/mL (≈ 585 µM) |
| 0.5 to 2 | Cc1ccc(-c2nnc([C@H]3CC[C@H](NC(=O)COc4ccc(Cl)c(F)c4)CN3)o2)cn1 [Example 34, 2-(4-chloro-3-fluorophenoxy)-N-[(3S,6R)-6-[5-(6-methylpyridin-3-yl)-1,3,4-oxadiazol-2-yl]piperidin-3-yl]acetamide] | solubility [1, 2]: 239 µg/mL (≈ 536 µM); solubility ([1]; phosphate buffer 50 mM, pH 2.0, read-out: Solubility (μg/mL) pH 2.0): 994 µg/mL (≈ 2230 µM); solubility [1, 3]: 153 µg/mL (≈ 343 µM) |
| 0.001 to 0.5 | O=C(COc1ccc(Cl)c(Cl)c1)N[C@H]1CC[C@H](c2nnc(OCCC(F)(F)F)o2)NC1 [Example 20, 2-(3,4-dichlorophenoxy)-N-[(3S,6R)-6-[5-(3,3,3-trifluoropropoxy)-1,3,4-oxadiazol-2-yl]piperidin-3-yl]acetamide] |  |
| 0.5 to 2 | O=C(COc1cc(F)c(Cl)c(F)c1)N[C@H]1CC[C@H](c2nnc(OCCC(F)(F)F)o2)NC1 [Example 22, 2-(4-chloro-3,5-difluorophenoxy)-N-[(3S,6R)-6-[5-(3,3,3-trifluoropropoxy)-1,3,4-oxadiazol-2-yl]piperidin-3-yl]acetamide] |  |
| 0.5 to 2 | O=C(COc1ccc(Cl)c(F)c1)N[C@@H]1CC[C@H](c2nnc(-c3ccc(Cl)cc3)o2)NC1 [Example 36, 2-(4-chloro-3-fluorophenoxy)-N-[(3R,6R)-6-[5-(4-chlorophenyl)-1,3,4-oxadiazol-2-yl]piperidin-3-yl]acetamide] |  |
| 2 to 15 | O=C(COc1cccc(C(F)(F)F)c1)N[C@H]1CC[C@H](c2nnc(OCCC(F)(F)F)o2)NC1 [Example 28, 2-[3-(trifluoromethyl)phenoxy]-N-[(3S,6R)-6-[5-(3,3,3-trifluoropropoxy)-1,3,4-oxadiazol-2-yl]piperidin-3-yl]acetamide] |  |
| 0.5 to 2 | O=C(COc1ccc(F)c(Cl)c1)N[C@H]1CC[C@H](c2nnc(OCCC(F)(F)F)o2)NC1 [Example 18, 2-(3-chloro-4-fluorophenoxy)-N-[(3S,6R)-6-[5-(3,3,3-trifluoropropoxy)-1,3,4-oxadiazol-2-yl]piperidin-3-yl]acetamide] |  |
| 2 to 15 | C[C@H](Oc1ccc(Cl)cc1)C(=O)N[C@H]1CC[C@H](c2nnc(-c3ccc(C(F)(F)F)cc3)o2)NC1 (single isomer, unassigned) [Example 107] |  |
| 0.5 to 2 | COCCN1C[C@H](NC(=O)COc2ccc(Cl)c(F)c2)CC[C@H]1c1nnc(-c2ccc(Cl)cc2)o1 [Example 48, 2-(4-chloro-3-fluoro-phenoxy)-N-[(3R,6S)-6-[5-(4-chlorophenyl)-1,3,4-oxadiazol-2-yl]-1-(2-methoxyethyl)piperidin-3-yl]acetamide] |  |
| 2 to 15 | O=C(COc1cc(Cl)c(Cl)c(Cl)c1)N[C@H]1CC[C@H](c2nnc(OCCC(F)(F)F)o2)NC1 [Example 26, 2-(3,4,5-trichlorophenoxy)-N-[(3S,6R)-6-[5-(3,3,3-trifluoropropoxy)-1,3,4-oxadiazol-2-yl]piperidin-3-yl]acetamide] |  |
| 2 to 15 | CC(C)(C)OC(=O)N1C[C@@H](NC(=O)COc2ccc(Cl)c(F)c2)CC[C@@H]1c1nnc(-c2ccc(Cl)cc2)o1 [Example 39, tert-butyl (2R,5S)-5-[2-(4-chloro-3-fluorophenoxy)acetamido]-2-[5-(4-chlorophenyl)-1,3,4-oxadiazol-2-yl]piperidine-1-carboxylate] |  |
| 0.5 to 2 | O=C(COc1ccc(Cl)c(F)c1)N[C@H]1CC[C@H](c2nnc(OCC(F)(F)C(F)(F)F)o2)NC1 [Example 73, 2-(4-chloro-3-fluorophenoxy)-N-[(3S,6R)-6-[5-(2,2,3,3,3-pentafluoropropoxy)-1,3,4-oxadiazol-2-yl]piperidin-3-yl]acetamide] |  |
| 0.001 to 0.5 | O=C(COc1ccc(C(F)(F)F)c(Cl)c1)N[C@H]1CC[C@H](c2nnc(OCCC(F)(F)F)o2)NC1 [Example 25, 2-[3-chloro-4-(trifluoromethyl)phenoxy]-N-[(3S,6R)-6-[5-(3,3,3-trifluoropropoxy)-1,3,4-oxadiazol-2-yl]piperidin-3-yl]acetamide] |  |
| 0.5 to 2 | O=C(COc1ccc(Cl)c(F)c1F)N[C@H]1CC[C@H](c2nnc(OCCC(F)(F)F)o2)NC1 [Example 21, 2-(4-chloro-2,3-difluorophenoxy)-N-[(3S,6R)-6-[5-(3,3,3-trifluoropropoxy)-1,3,4-oxadiazol-2-yl]piperidin-3-yl]acetamide] |  |
| 2 to 15 | O=C(COc1ccc(Cl)cc1F)N[C@H]1CC[C@H](c2nnc(OCCC(F)(F)F)o2)NC1 [Example 17, 2-(4-chloro-2-fluorophenoxy)-N-[(3S,6R)-6-[5-(3,3,3-trifluoropropoxy)-1,3,4-oxadiazol-2-yl]piperidin-3-yl]acetamide] |  |
| 0.001 to 0.5 | O=C(COc1ccc(Cl)c(F)c1)N[C@H]1CC[C@H](c2nnc(-c3ccc(Cl)cc3)o2)NC1=O (racemic) [Example 37, Rac-2-(4-chloro-3-fluorophenoxy)-N-[6-[5-(4-chlorophenyl)-1,3,4-oxadiazol-2-yl]-2-oxopiperidin-3-yl]acetamide] |  |
| 0.5 to 2 | O=C(N[C@H]1CC[C@H](c2nnc(OCCC(F)(F)F)o2)NC1)C(F)(F)Oc1ccc(Cl)c(F)c1 [Example 24, 2-(4-chloro-3-fluorophenoxy)-2,2-difluoro-N-[(3S,6R)-6-[5-(3,3,3-trifluoropropoxy)-1,3,4-oxadiazol-2-yl]piperidin-3-yl]acetamide] |  |

| SMILES | IC50 (ATF4) [µM] | further results |
| --- | --- | --- |
| O=C(COc1ccc(Cl)c(F)c1)N[C@H]1CC[C@H](c2nnc(OCCCC(F)(F)F)o2)NC1 [Example 74, 2-(4-chloro-3-fluorophenoxy)-N-[(3S,6R)-6-[5-(4,4,4-trifluorobutoxy)-1,3,4-oxadiazol-2-yl]piperidin-3-yl]acetamide] | 0.001 to 0.5 |  |

Source: patent US12258338B2, “Modulators of the integrated stress response pathway” (EVOTEC INTERNATIONAL GMBH, priority 2019, dated 2025)
